# In publication PMC6811539, “Minute-scale persistence of a GPCR conformation state triggered by non-cognate G protein interactions primes signaling” (Nature Communications, 2019):
# Biological target: T1, β2-AR-mCherry, endogenous Gs (Homo sapiens, UniProt P07550)
# T1 construct: expressed in transfected cells; host or cells: native (not urea-stripped) membranes of HEK293T cells transiently transfected with β2-AR-mCherry
# Test: activation of endogenous Gs (BODIPY-FL-GTPγS), native membranes expressing β2-AR-mCherry
# Type: biochemical
# Procedure: Membranes were prepared following a published protocol[56] from HEK293T cells transiently transfected with the appropriate DNA (β2-AR-mCherry, β2-mCerulean, […]-mCherry, β2-AR-ICL3 or β2-AR-Sp). Cells were collected in culture medium and washed twice with PBS by centrifugation (300 × g, 3 min, ambient temperature). […] Cells in solution A were lysed gently (30 strokes) in a chilled Dounce homogenizer in the presence of 1.5 μg/mL aprotinin, 1.5 μg/mL leupeptin, 5 μg/mL phenylmethylsulfonyl fluoride (PMSF) and 1 mM dithiothreitol (DTT). Nuclei and intact cells were eliminated by centrifugation at 1000 × g, 5 min, 4 °C. All subsequent centrifugation steps were performed in a TLA100.4 rotor at 135,000 × g, 30 min, 4 °C. […] HEK293T cells in 15 cm dishes were transiently transfected with β2-AR-mCherry or […]-mCherry plasmid as described in the section on “Cells, Cell culture and Transfections,” earlier. Membranes were isolated and treated with urea as detailed (Membrane preparations). Urea treatment denatures and inactivates the endogenous G proteins, allowing the reconstitution of desired combinations of Gα, and βγ subunits and specific C terminus peptides. Reconstitution reactions were assembled on ice. […] The agonist-stimulated change in fluorescence counts was calculated by subtracting the early stimulation spectra from the post-stimulation spectra. Samples treated with BODIPY buffer (no agonist) were processed similarly, to determine the increase in BODIPY fluorescence without agonist stimulation, which represented nonspecific and basal incorporation of the BODIPY in the reaction time. Specific, agonist-induced change in BODIPY fluorescence was calculated by subtracting the increase in buffer-treated samples from the agonist-mediated increase. This change in fluorescence (increase) provided a measure of BODIPY-FL-GTPγS incorporation into the Gα-subunit. Each reaction provided three agonist and three mock readings. […] BODIPY incorporation was monitored as above. […] The experiment was repeated with mock buffer and agonist-specific G-protein activation was calculated.
substance,measurement,setting,value
"DTENIRFVFAAVKDTILQLNLKE(Anp)NLV [PC-Qp, photocleavable Qp, Y356 replaced by Anp]",primed G-protein activation response after UV before mixing,PC-Qp exposed to UV before mixing with other reactants,lost
same,persistence of enhanced G-protein activation after photocleavage,"PC-Qp, UV after addition to membranes",120 s
same,increase in G-protein activation in response to fenoterol,"fenoterol 10 μM, 3 min, Qp 30 μM or PC-Qp 50 μM, no UV",~ 7 fold
